Reference: US5298523A, “Method for treating transplant patients using mycalamide compounds” (priority 1992, dated 1994)

Columns and labels:
[1] = system: two-way murine mixed lymphocyte response (C57BL/6J and BALB/c splenocytes); experiment: Two-way murine mixed lymphocyte reaction (MLR), 3H-thymidine incorporation; format: cell-based
Experimental: Preparation of splenocyte cell suspensions. […] The resulting supernatant was then transferred to another sterile centrifuge tube, and the cell concentration adjusted to 2×10^6 cells/ml dilution with TCM.
(§1) Two way mixed lymphocyte reaction (MLR). The immunosuppressive properties of mycalamide A were evaluated using the two-way MLR, utilizing murine splenocytes and human PBL. For the murine MLR, splenocytes from C57Bl/6J and BALB/c mice were prepared as described above, and a volume of […] of each cell suspension was added together to test and control wells of microtiter plates. Wells containing 0.20 ml of each cell suspension alone served as controls.
(§2) Dilutions of the drug to be tested were prepared in absolute EtOH and further diluted to the appropriate concentration in TCM and added directly to the wells containing splenocyte combinations. Additional solvent (EtOH) control wells were also prepared by adding the equivalent percentage of EtOH to each culture well. Plates were incubated at 37° C. in a 5% CO2 humidified atmosphere for 88 hours. Following the incubation, 1.0 μCi of ^3 H-thymidine was added to each well, and the plates were returned to the incubator for 5 hours. The contents of each well were harvested onto glass-fiber filter strips, and the incorporation of ^3 H-thymidine was determined by a liquid scintillation counter. Similar conditions were utilized for MLR cultures using human peripheral blood lymphocytes prepared from unrelated donors as described above, with the exception that the initial incubation and subsequent ^3 H-thymidine pulse times were different (114 hours for initial incubation followed by a 6-hour incubation with ^3 H-thymidine). Plates were harvested in a similar manner, and ^3 H-thymidine incorporation determined as described above.

[2] = system: graft vs. host reaction, CB6F1 mice grafted with BALB/c splenocytes; experiment: Graft vs. host reaction (Simonsen splenomegaly assay); format: in vivo, mouse; conditions: for % Suppression / Number of surviving mice at the end of the experiment / Stim. index: Days 1-7
Experimental: Graft vs. host reaction. In vivo studies with mycalamide A utilized the […]→F1, GVHR model (Simonsen splenomegaly assay). CB6F1 male mice, 4 weeks of age, were injected intraperitoneally with 5×10^7 splenocytes from BALB/c male mice, 8 weeks of age, on day 0 (BALB/c→CB6F1). A syngeneic control group (CB6F1 →CB6F1) was similarly prepared and served as the negative control. For experiment 1, the grafted mice were divided into 5 treatment groups of 5 mice each. Groups were injected intraperitoneally with mycalamide A (dissolved initially in ethanol followed by dilution in sterile phosphate-buffered saline as a vehicle) or vehicle alone on days 1-7. For experiment 2, the grafted mice were divided into 7 treatment groups of 5 mice each and similarly injected intraperitoneally with mycalamide A, an immunosuppressive standard, didemnin B, or vehicle alone on days 1-7. On day 7 all groups were sacrificed, spleens excised, and the mean spleen weight and stimulation index calculated for each group. The stimulation index was calculated as follows: [formula] A spleen index of 1.3 or greater is considered a positive response.
^a CB6F1 mice (5 per group) were grafted with 5 × 10^7
BALB/c splenocytes, intraperitoneally on Day 0. Groups were injected
intraperitoneally with drug or vehicle on Days 1-7. Positive indicates
grafted mice receiving vehicle alone.
^b Number of surviving mice at the end of the experiment.
^c Stimulation index (SI) = (spleen weight of test group/body weight
of test group)/(spleen weight of syngeneic group/body weight of syngeneic
^d Suppression = [(SI of positive control) (SI of test group)]/[(SI
of positive control) (SI of syngeneic group)].
^e Didemnin B immunosuppressive standard.

[3] = system: two-way human mixed lymphocyte response (human PBL); experiment: Two-way human mixed lymphocyte reaction (MLR), 3H-thymidine incorporation; format: cell-based
Experimental: Preparation of human peripheral blood leukocyte (PBL) suspensions. Human peripheral blood suspensions were prepared from Leukotrap blood filters as follows: Leukotrap filters containing processed leukocytes from random, unrelated blood donors were obtained from the Indian River Blood Bank (Vero Beach, Fla.). Buffy-coat blood cell suspensions were recovered by reverse-flow phosphate-buffered saline purging and centrifugation for 15 minutes at 475× g. Buffy coats were removed, and 5 ml of the suspension was layered onto 5 ml of Histopaque gradient material. The Histopaque gradients were centrifuged at 475× g for 30 minutes. Lymphocytes were removed from the Histopaque-medium interface, and washed twice with 10 ml of PBS (Dulbecco's phosphate-buffered saline without CaCl2 and MgCl2.6H2 O). The final cell pellet was resuspended in TCM, and the cell concentration adjusted to 2×10^6 cells/ml.
as §1, §2

[4] = Experiment #2, 0.005 mg/kg i.p.

## C=C1CC(OC)(C(O)C(=O)NC2OCOC3C2OC(CC(O)CO)C(C)(C)C3OC)OC(C)C1C (centres unmarked) [Mycalamide A, mycalamide A]
[1]; Mus musculus, Splenocyte, 5.0 × 10^0 μg/ml, read-out: % of Positive Control MLR
  activity at 5 µg/mL: 0%
[1]; Mus musculus, Splenocyte, 5.0 × 10^1 μg/ml, read-out: % of Positive Control MLR
  activity at 50 µg/mL: 0%
[1]; Mus musculus, Splenocyte, 5.0 × 10^2 μg/ml, read-out: % of Positive Control MLR
  activity at 500 µg/mL: 0%
[1]; Mus musculus, Splenocyte, 5.0 × 10^-1 μg/ml, read-out: % of Positive Control MLR
  activity at 0.5 µg/mL: 0%
[1]; Mus musculus, Splenocyte, 5.0 × 10^-2 μg/ml, read-out: % of Positive Control MLR
  activity at 0.05 µg/mL: 0%
[1]; Mus musculus, Splenocyte, 5.0 × 10^-3 μg/ml, read-out: % of Positive Control MLR
  activity at 0.005 µg/mL: 0%
[1]; Mus musculus, Splenocyte, 5.0 × 10^-4 μg/ml, read-out: % of Positive Control MLR
  activity at 0.0005 µg/mL: 0%
[1]; Mus musculus, Splenocyte, 5.0 × 10^-5 μg/ml, read-out: % of Positive Control MLR
  activity at 50 pg/mL: 0%
[1]; Mus musculus, Splenocyte, 5.0 × 10^-6 μg/ml, read-out: % of Positive Control MLR
  activity at 5 pg/mL: 0%
[1]; Mus musculus, Splenocyte, 5.0 × 10^-7 μg/ml, read-out: % of Positive Control MLR
  activity at 500 fg/mL: 0%
[1]; Mus musculus, Splenocyte, 5.0 × 10^-8 μg/ml, read-out: % of Positive Control MLR
  activity at 50 fg/mL: 0%
[1]; Mus musculus, Splenocyte, 5.0 × 10^-9 μg/ml, read-out: % of Positive Control MLR
  activity at 5 fg/mL: 0%
[1]; Mus musculus, Splenocyte, 5.0 × 10^-10 μg/ml, read-out: % of Positive Control MLR
  activity at 5e-10 µg/mL: 0%
[1]; Mus musculus, Splenocyte, 5.0 × 10^-11 μg/ml, read-out: % of Positive Control MLR
  activity at 5e-11 µg/mL: 0%
[1]; Mus musculus, Splenocyte, 5.0 × 10^-12 μg/ml, read-out: % of Positive Control MLR
  activity at 5e-12 µg/mL: 0%
[1]; Mus musculus, Splenocyte, 5.0 × 10^-13 μg/ml, read-out: % of Positive Control MLR
  activity at 5e-13 µg/mL: 0%
[1]; Mus musculus, Splenocyte, 5.0 × 10^-14 μg/ml, read-out: % of Positive Control MLR
  activity at 5e-14 µg/mL: 0%
[1]; Mus musculus, Splenocyte, 5.0 × 10^-15 μg/ml, read-out: % of Positive Control MLR
  activity at 5e-15 µg/mL: 0%
[1]; Mus musculus, Splenocyte, 5.0 × 10^-16 μg/ml, read-out: % of Positive Control MLR
  activity at 5e-16 µg/mL: 0%
[1]; Mus musculus, Splenocyte, 5.0 × 10^-17 μg/ml, read-out: % of Positive Control MLR
  activity at 5e-17 µg/mL: 85%
[1]; Mus musculus, Splenocyte, 5.0 × 10^-18 μg/ml, read-out: % of Positive Control MLR
  activity at 5e-18 µg/mL: 82%
[1]; Mus musculus, Splenocyte, 5.0 × 10^-19 μg/ml, read-out: % of Positive Control MLR
  activity at 5e-19 µg/mL: 128%
[1]; murine
  range of concentrations that suppressed the MLR: 5×10^2 to 5×10^-16 μg/ml
[2]; Experiment #1, 0.01 mg/kg i.p.
  % Suppression: 102%
  Number of surviving mice at the end of the experiment: 5/5
  Stim. index: 0.99
[2]; Experiment #1, 0.05 mg/kg i.p.
  % Suppression: 0%
  Number of surviving mice at the end of the experiment: 0/5
[2]; Experiment #1, 0.1 mg/kg i.p.
  % Suppression: 0%
  Number of surviving mice at the end of the experiment: 0/5
[2]; [4]
  % Suppression: 0%
  Number of surviving mice at the end of the experiment: 5/5
  Stim. index: 1.92
[2]; Experiment #2, 0.01 mg/kg i.p.
  % Suppression: 88%
  Number of surviving mice at the end of the experiment: 5/5
  Stim. index: 1.06
[2]; Experiment #2, 0.05 mg/kg i.p.
  % Suppression: 0%
  Number of surviving mice at the end of the experiment: 0/5
[2]; Experiment #2, 0.1 mg/kg i.p.
  % Suppression: 0%
  Number of surviving mice at the end of the experiment: 0/5
[2]; dosages higher than 0.01 mg/kg i.p., in words
  toxicity in mice: toxic
[2]; dosages lower than 0.01 mg/kg i.p., in words
  immunosuppression in GVHR: not immunosuppressive
[3]; 120 h, human, 5.0 × 10^-1 μg/ml, read-out: % of Positive Control MLR
  activity at 0.5 µg/mL: 0%
[3]; 120 h, human, 5.0 × 10^-2 μg/ml, read-out: % of Positive Control MLR
  activity at 0.05 µg/mL: 0%
[3]; 120 h, human, 5.0 × 10^-3 μg/ml, read-out: % of Positive Control MLR
  activity at 0.005 µg/mL: 0%
[3]; 120 h, human, 5.0 × 10^-4 μg/ml, read-out: % of Positive Control MLR
  activity at 0.0005 µg/mL: 40%
[3]; 120 h, human, 5.0 × 10^-5 μg/ml, read-out: % of Positive Control MLR
  activity at 50 pg/mL: 43%
[3]; 120 h, human, 5.0 × 10^-6 μg/ml, read-out: % of Positive Control MLR
  activity at 5 pg/mL: 71%
[3]; 120 h, human, 5.0 × 10^-7 μg/ml, read-out: % of Positive Control MLR
  activity at 500 fg/mL: 81%
[3]; Homo sapiens
  IC50: 0.017 ng/mL
